Source: US10787433B2, “Pyridazine derivatives as EAAT2 activators” (THE BRIGHAM AND WOMEN'S HOSPITAL, INC., priority 2016, dated 2020)

Experiments:
EAAT2 [1] = experiment: EAAT2 Cellular Assay: EAAT2 protein levels in PA-EAAT2 cells by Western blot; assay type: cell-based, human; details: 24 hr, relative to DMSO controls
Experimental: All of the compounds were initially evaluated in PA-EAAT2 cells, a primary astrocyte stably expressing human EAAT2 mRNAs (Kong et al., J Clin Invest. 2014:1255-67). Cells were treated with compound at 0.25 μM, 0.5 μM, 1 μM, 2.5 μM, 5 μM, 10 μM, and 25 μM for 24 hr and then harvested for measuring EAAT2 protein levels by Western blot analysis.

EAAT2 [2] = experiment: EAAT2 expression in mouse brain after single oral dose (semi-quantitative Western blot); assay type: in vivo; details: mice, single dose by oral gavage, brains harvested at 24 h post-treatment
Experimental: Mice received a single dose of the compound (n=3/dose) by oral gavage. Brains were harvested at 24 h post-treatment. EAAT2 protein levels were analyzed by semi-quantitative Western blot analysis.

[3] = 10 μM (concentration that reaches maximum activity)
[4] = 5 μM (concentration that reaches maximum activity)
[5] = 0.25 μM (concentration that reaches maximum activity)
[6] = 0.5 μM (concentration that reaches maximum activity)
[7] = 1 μM (concentration that reaches maximum activity)
[8] = 2.5 μM (concentration that reaches maximum activity)

## CNC(=O)COc1ccc(-c2ccccn2)nn1 [drawing 130]
EAAT2 [1]; [3]
  Fold increase for EAAT2 at indicated concentration (maximum activity): 1.8 ± 0.1 (10 μM) fold

## Cc1ccccc1NC(=O)COc1ccc(-c2ccccn2)nn1
EAAT2 [1]; [3]
  Fold increase for EAAT2 at indicated concentration (maximum activity): 2.4 ± 0.2 (10 μM) fold

## CC(Oc1ccc(-c2ccccn2)nn1)c1ccccn1 (centres unmarked)
EAAT2 [1]; [4]
  Fold increase for EAAT2 at indicated concentration (maximum activity): 1.7 ± 0.1 (5 μM) fold

## O=C(Nc1ccc(-c2ccccn2)nn1)c1ccc(F)c(Cl)c1
EAAT2 [1]; [5]
  Fold increase for EAAT2 at indicated concentration (maximum activity): 2.2 ± 0.4 (0.25 μM) fold

## CN1CCC(C(=O)Nc2ccc(-c3ccccn3)nn2)CC1
EAAT2 [1]; [6]
  Fold increase for EAAT2 at indicated concentration (maximum activity): 1.7 ± 0.1 (0.5 μM) fold

## CN(C(=O)COc1ccc(-c2ccccn2)nn1)c1ccccc1
EAAT2 [1]; [3]
  Fold increase for EAAT2 at indicated concentration (maximum activity): 2.2 ± 0.3 (10 μM) fold

## O=C(Nc1ccc(-c2ccccn2)nn1)c1ccc(F)cc1 [Example 4, 4-Fluoro-N-(6-(pyridin-2-yl)pyridazin-3-yl)benzamide]
EAAT2 [2]
  EAAT2 protein levels in mouse brain: dose-dependently increased EAAT2 levels

## NC(=O)COc1ccc(-c2ccccn2)nn1
EAAT2 [1]; [3]
  Fold increase for EAAT2 at indicated concentration (maximum activity): 1.8 ± 0.2 (10 μM) fold

## CN(C)CCNc1ccc(-c2ccccn2)nn1
EAAT2 [1]; [4]
  Fold increase for EAAT2 at indicated concentration (maximum activity): 2.4 ± 0.2 (5 μM) fold

## O=C(Nc1ccc(-c2ccccn2)nn1)c1cccc(Cl)c1
EAAT2 [1]; [7]
  Fold increase for EAAT2 at indicated concentration (maximum activity): 1.5 ± 0.1 (1 μM) fold

## O=S(=O)(Nc1ccc(-c2ccccn2)nn1)c1ccccc1F
EAAT2 [1]; [5]
  Fold increase for EAAT2 at indicated concentration (maximum activity): 2.6 ± 0.2 (0.25 μM) fold

## O=C(Nc1ccc(-c2cccnc2)nn1)c1ccc(F)cc1
EAAT2 [1]; [3]
  Fold increase for EAAT2 at indicated concentration (maximum activity): 2.1 ± 0.2 (10 μM) fold

## Cn1cncc1COc1ccc(-c2ccccn2)nn1
EAAT2 [1]; [4]
  Fold increase for EAAT2 at indicated concentration (maximum activity): 1.7 ± 0.1 (5 μM) fold

## Cn1cncc1C(=O)Nc1ccc(-c2ccccn2)nn1
EAAT2 [1]; [3]
  Fold increase for EAAT2 at indicated concentration (maximum activity): 1.8± 0.2 (10 μM) fold

## CN(C)CCOc1ccc(-c2ccccn2)nn1
EAAT2 [1]; [8]
  Fold increase for EAAT2 at indicated concentration (maximum activity): 2.9 ± 0.2 (2.5 μM) fold

## O=C(Nc1ccc(-c2ccccn2)nn1)c1cc(F)ccn1
EAAT2 [1]; [5]
  Fold increase for EAAT2 at indicated concentration (maximum activity): 1.7 ± 0.1 (0.25 μM) fold

## c1ccc(CNc2ccc(-c3ccccn3)nn2)cc1
EAAT2 [1]; [3]
  Fold increase for EAAT2 at indicated concentration (maximum activity): 3.1 ± 0.3 (10 μM) fold

## O=C(Nc1ccc(-c2ccccn2)nn1)c1ccccc1Cl
EAAT2 [1]; [4]
  Fold increase for EAAT2 at indicated concentration (maximum activity): 2.0 ± 0.2 (5 μM) fold

## c1ccc(-c2ccc(OCc3nccs3)nn2)nc1
EAAT2 [1]; [3]
  Fold increase for EAAT2 at indicated concentration (maximum activity): 2.2 ± 0.3 (10 μM) fold

## O=C(Nc1ccc(-c2ccccn2)nn1)c1ccc(F)cn1
EAAT2 [1]; [5]
  Fold increase for EAAT2 at indicated concentration (maximum activity): 1.9 ± 0.2 (0.25 μM) fold

## O=C(Nc1ccc(-c2ccccn2)nn1)c1cncs1
EAAT2 [1]; [4]
  Fold increase for EAAT2 at indicated concentration (maximum activity): 1.9 ± 0.1 (5 μM) fold

## COc1ccc(C(=O)Nc2ccc(-c3ccccn3)nn2)cc1
EAAT2 [1]; [3]
  Fold increase for EAAT2 at indicated concentration (maximum activity): 2.1 ± 0.2 (10 μM) fold

## c1ccc(-c2ccc(OCc3ncco3)nn2)nc1
EAAT2 [1]; [8]
  Fold increase for EAAT2 at indicated concentration (maximum activity): 1.9 ± 0.1 (2.5 μM) fold

## Cn1ccnc1COc1ccc(-c2ccccn2)nn1
EAAT2 [1]; [4]
  Fold increase for EAAT2 at indicated concentration (maximum activity): 1.9 ± 0.1 (5 μM) fold

## O=C(Nc1ccc(-c2ccccn2)nn1)c1ccc(Cl)cc1
EAAT2 [1]; [7]
  Fold increase for EAAT2 at indicated concentration (maximum activity): 1.5 ± 0.2 (1 μM) fold

## O=S(=O)(Nc1ccc(-c2ccccn2)nn1)c1ccc(F)cc1
EAAT2 [1]; [6]
  Fold increase for EAAT2 at indicated concentration (maximum activity): 2.4 ± 0.2 (0.5 μM) fold

## O=C(COc1ccc(-c2ccccn2)nn1)N1CCCCC1
EAAT2 [1]; [3]
  Fold increase for EAAT2 at indicated concentration (maximum activity): 2.6 ± 0.1 (10 μM) fold

## c1ccc(COc2ccc(-c3ccccn3)nn2)nc1
EAAT2 [1]; [4]
  Fold increase for EAAT2 at indicated concentration (maximum activity): 3.0 ± 0.1 (5 μM) fold

## CN(C)C(=O)COc1ccc(-c2ccccn2)nn1
EAAT2 [1]; [4]
  Fold increase for EAAT2 at indicated concentration (maximum activity): 2.9 ± 0.2 (5 μM) fold

## CNC(=O)COc1ccc(-c2ccccn2)nn1 [drawing 129]
EAAT2 [1]; [5]
  Fold increase for EAAT2 at indicated concentration (maximum activity): 2.3 ± 0.1 (0.25 μM) fold

## O=C(Nc1ccc(-c2ccccn2)nn1)c1cccc(F)n1
EAAT2 [1]; [5]
  Fold increase for EAAT2 at indicated concentration (maximum activity): 1.6 ± 0.1 (0.25 μM) fold

## O=C(Nc1ccc(-c2ccccn2)nn1)c1ccc(F)cc1 [drawing 110]
EAAT2 [1]; [5]
  Fold increase for EAAT2 at indicated concentration (maximum activity): 2.5 ± 0.3 (0.25 μM) fold

## O=C(Nc1ccc(-c2ccccn2)nn1)c1cccnn1
EAAT2 [1]; [6]
  Fold increase for EAAT2 at indicated concentration (maximum activity): 1.9 ± 0.1 (0.5 μM) fold

## O=C(Nc1ccc(-c2ccccn2)nn1)c1ncccn1
EAAT2 [1]; [6]
  Fold increase for EAAT2 at indicated concentration (maximum activity): 1.5 ± 0.1 (0.5 μM) fold

## c1ccc(-c2ccc(NCCCn3ccnc3)nn2)nc1
EAAT2 [1]; [4]
  Fold increase for EAAT2 at indicated concentration (maximum activity): 3.3 ± 0.2 (5 μM) fold
